Paper PMC11519575 (Nature Communications, 2024)

Experiments:
LigM = LigM (Sphingobium sp. SYK-6, UniProt G2IQS7); assay: whole-cell consumption; assay type: cell-based; settings: tetrahydrofolate cofactor; with ligH and metF in R. eutropha H16
VanAB = molecular target: T1, VanAB (Pseudomonas putida, UniProt Q88GI6); assay: whole-cell consumption; assay type: cell-based; settings: R. eutropha H16 expressing vanAB, sole carbon source, 30 °C
T1 sequence (Q88GI6 1-355): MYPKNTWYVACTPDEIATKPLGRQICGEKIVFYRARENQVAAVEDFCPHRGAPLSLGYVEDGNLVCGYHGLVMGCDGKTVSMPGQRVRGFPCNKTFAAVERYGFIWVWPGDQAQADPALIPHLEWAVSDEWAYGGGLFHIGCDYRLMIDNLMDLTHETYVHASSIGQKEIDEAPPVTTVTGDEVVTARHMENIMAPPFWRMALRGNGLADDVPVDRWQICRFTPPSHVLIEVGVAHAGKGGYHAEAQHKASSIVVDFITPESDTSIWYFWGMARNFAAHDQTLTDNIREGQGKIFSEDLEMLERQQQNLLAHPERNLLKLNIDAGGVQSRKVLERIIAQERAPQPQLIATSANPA
T1 sequence (Q88GI5 1-316 partner): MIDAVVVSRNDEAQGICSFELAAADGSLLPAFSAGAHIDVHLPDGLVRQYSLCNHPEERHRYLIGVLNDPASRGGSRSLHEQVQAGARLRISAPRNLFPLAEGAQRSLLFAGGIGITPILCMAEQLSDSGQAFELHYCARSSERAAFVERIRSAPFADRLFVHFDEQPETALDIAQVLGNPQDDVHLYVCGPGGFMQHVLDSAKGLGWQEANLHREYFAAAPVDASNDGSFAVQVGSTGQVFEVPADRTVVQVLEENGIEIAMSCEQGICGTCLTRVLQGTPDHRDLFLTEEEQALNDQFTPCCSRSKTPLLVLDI

Sequence of LigM (G2IQS7 whole entry): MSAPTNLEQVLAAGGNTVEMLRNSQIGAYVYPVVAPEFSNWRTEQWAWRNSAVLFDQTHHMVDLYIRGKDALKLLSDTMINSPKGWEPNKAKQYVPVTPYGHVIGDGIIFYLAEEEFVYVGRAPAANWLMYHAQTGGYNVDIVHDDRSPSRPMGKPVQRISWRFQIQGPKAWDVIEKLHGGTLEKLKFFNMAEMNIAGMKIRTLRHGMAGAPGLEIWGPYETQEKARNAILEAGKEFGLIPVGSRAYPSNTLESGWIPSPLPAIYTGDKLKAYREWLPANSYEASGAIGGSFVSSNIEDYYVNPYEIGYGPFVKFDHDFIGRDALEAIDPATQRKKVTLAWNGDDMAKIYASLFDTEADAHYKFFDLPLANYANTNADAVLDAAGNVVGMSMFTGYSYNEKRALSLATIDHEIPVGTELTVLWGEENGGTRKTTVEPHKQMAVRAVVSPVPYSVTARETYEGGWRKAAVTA

With `COc1cc(C(=O)O)ccc1O` [vanillic acid] the “whole-cell consumption (HPLC) and growth” value (LigM) was “the demethylation process of the optimized LigM system is still the main rate-limiting step” and the “whole-cell consumption (HPLC) and growth” value (VanAB) was “expression of vanAB could enable the strain to use vanillic acid”.
